{"source": "patent US20260217705A1", "about": "“POLYMORPHS OF THE HYDROBROMIDE SALT OF LINAPRAZAN GLURATE” (CINCLUS PHARMA HOLDING AB (PUBL), priority 2023, published 2026)", "key": {"[1]": {"conditions": "cited from earlier work"}, "[2]": {"assay": "Dynamic/gravimetric vapour sorption (DVS/GVS) hygroscopicity", "type": "physicochemical", "conditions": "for hygroscopicity (in words): DVS/GVS at 25° C.", "experimental": "Analyses were performed on an SMS DVS Advantage instrument. A few mg of the substance was added into an Al pan and exposed to stepwise RH changes according to 0-90-20% in steps of 10% RH, using open loop mode. The experiments were performed using a gas flow rate of 200 mL/min and at 25° C. The dm/dt criteria applied was 0.001 weight-%/min during a 5-minute window, with a maximum allowed time of 150 minutes and a minimum allowed time of 50 minutes for all steps except for the step at 0% RH, which had no criteria but was set to 6 h.\nThe hygroscopicity of Form A (as obtained from the synthesis described in Example 1), Form B (as obtained from a slurry in methanol/water 4:1) and Form C (as obtained from a slurry in ethanol) were investigated using GVS at 25° C. […] Form A can thus be classified as non-hygroscopic.\nWith a weight gain of about 3% at elevated humidities, it appears that a hydrate form is formed. Upon drying, Form B returned to the anhydrate; see FIGS. 12A and 12B, respectively.\nForm C is thus classified as non-hygroscopic."}, "[3]": {"assay": "Thermogravimetric analysis (TGA) weight loss", "type": "physicochemical", "conditions": "heating up to 175° C.", "experimental": "Analyses were performed on a PerkinElmer TGA8000 instrument. A few mg of sample was gently charged into open Pt-pans and analysed by weight in a flow of dry nitrogen gas (40 mL/min), to ensure an inert atmosphere. The sample was scanned from 25 to 200° C. using a continuous scan speed of 10° C./min.\nThis confirms that Form A is an anhydrate."}, "intragastric acidity": {"tested_on": "intragastric acidity", "conditions": "cited from earlier work"}, "[4]": {"conditions": "cited from earlier work", "remark": "listed apart in the source"}, "clinical": {"assay": "clinical", "conditions": "human, in vivo", "experimental": "Linaprazan glurate is a prodrug of linaprazan, which was disclosed in WO 99/55706 and previously studied in Phase I and II studies. […] A clinical Phase I study has shown that administration of a single dose of linaprazan glurate can maintain the intragastric acidity above pH 4 for 24 hours. Linaprazan glurate is therefore tailored for patients with severe erosive gastroesophageal reflux disease (eGERD).\nWhereas the plasma concentration of linaprazan glurate is only very low and difficult to determine, the plasma concentration of linaprazan may be determined instead. […] It is estimated that this requires a minimal plasma concentration (Cmin) of linaprazan of at least about 240 nmol/L after 22 hours. At such doses, a once daily oral administration of the formulation would be sufficient. In some embodiments, therefore, a single unit dose of a pharmaceutical composition of linaprazan glurate provides a Cmin of linaprazan in a human of at least about 240 nmol/L after 22 hours following oral administration of the pharmaceutical composition to said human. In other embodiments, a daily administration of two unit doses of a pharmaceutical composition of linaprazan glurate provides a Cmin of linaprazan in a human of at least about 240 nmol/L after 10 hours following oral administration of the last unit dose of the pharmaceutical composition to said human."}, "gastric acid": {"tested_on": "gastric acid", "conditions": "Phase I and II studies; cited from earlier work"}, "[5]": {"conditions": "GVS at 25° C., humidity range of 0-90%"}}, "note": "“Also recorded” adds a separate entry of the source. Like-named read-outs stand apart in the source and are kept apart here.", "data": [{"smiles": "Cc1cccc(C)c1CNc1cc(C(=O)NCCOC(=O)CCCC(=O)O)cn2c(C)c(C)nc12", "note": "[Form A of the free base]", "values": [{"measurement": "solubility in water", "setting": "[1]; pH 1", "result": "slightly soluble"}, {"measurement": "solubility in water", "setting": "[1]; pH 6.8", "result": "practically insoluble"}]}, {"smiles": "Br.Cc1cccc(C)c1CNc1cc(C(=O)NCCOC(=O)CCCC(=O)O)cn2c(C)c(C)nc12", "note": "[Form A]", "values": [{"measurement": "water uptake", "setting": "[2]; DVS, at 80% RH", "result": "about 0.15%"}, {"measurement": "hygroscopicity (in words)", "setting": "[2]", "result": "non-hygroscopic; also recorded: very low hygroscopicity"}, {"measurement": "water uptake", "setting": "[2]; [5]", "result": "~0.22", "unit": "%"}, {"measurement": "weight loss", "setting": "[3]", "result": 0.3, "unit": "%"}]}, {"smiles": "Br.Cc1cccc(C)c1CNc1cc(C(=O)NCCOC(=O)CCCC(=O)O)cn2c(C)c(C)nc12", "note": "[Form B]", "values": [{"measurement": "hygroscopicity (in words)", "setting": "[2]", "result": "significant water uptake with increasing humidity"}, {"measurement": "weight gain", "setting": "[2]; GVS at 25° C., elevated humidities", "result": "about 3%"}, {"measurement": "weight loss", "setting": "[3]", "result": 0.3, "unit": "%"}]}, {"smiles": "Br.Cc1cccc(C)c1CNc1cc(C(=O)NCCOC(=O)CCCC(=O)O)cn2c(C)c(C)nc12", "note": "[Form C]", "values": [{"measurement": "water content", "setting": "[2]; DVS, at 90% RH", "result": "not more than 0.05%"}, {"measurement": "hygroscopicity (in words)", "setting": "[2]", "result": "non-hygroscopic; also recorded: very low"}, {"measurement": "water uptake", "setting": "[2]; [5]", "result": "about 0.05%"}, {"measurement": "weight loss", "setting": "[3]", "result": 0.2, "unit": "%"}]}, {"smiles": "Cc1cccc(C)c1CNc1cc(C(=O)NCCOC(=O)CCCC(=O)O)cn2c(C)c(C)nc12", "note": "[linaprazan glurate, 5-{2-[({8-[(2,6-dimethylbenzyl)amino]-2,3-dimethylimidazo[1,2-a]pyridine-6-yl}carbonyl)-amino]ethoxy}-5-oxopentanoic acid]", "values": [{"measurement": "control of gastric acid production", "setting": "intragastric acidity; compared to linaprazan", "result": "total control of the gastric acid production for a longer time"}, {"measurement": "time intragastric acidity maintained above pH 4", "setting": "intragastric acidity; single dose, Phase I", "result": 24, "unit": "hours"}, {"measurement": "plasma concentration", "setting": "[4]; after absorption", "result": "only very low"}, {"measurement": "half-life in the body", "setting": "[4]; compared to linaprazan", "result": "longer half-life"}, {"measurement": "metabolism after absorption into the blood stream", "setting": "[4]; in vivo", "result": "quickly metabolized into linaprazan"}]}, {"smiles": "Cc1cccc(C)c1CNc1cc(C(=O)NCCO)cn2c(C)c(C)nc12", "note": "[linaprazan]", "values": [{"measurement": "concentration at 22 h", "setting": "clinical", "result": "≥ 240", "unit": "nM"}, {"measurement": "duration of acid inhibition", "setting": "gastric acid", "result": "too short duration"}, {"measurement": "elimination from the body", "setting": "gastric acid", "result": "quickly eliminated from the body"}, {"measurement": "onset of action", "setting": "gastric acid", "result": "fast onset of action"}, {"measurement": "tolerability", "setting": "gastric acid", "result": "well tolerated"}]}]}
